Laboratory results reported in US7138361B2, “Herbicidal heterocycles” (E. I. du Pont de Nemours and Company, priority 2000, dated 2006).

Legend:
Assay type in all cases: in vivo
[1] = system: woolly cupgrass (Eriochloa villosa); experiment: Test C preemergence; settings: for Plant response rating (0 to 100), Cupgrass, Woolly: Rate 500 g/ha, visual evaluation after 12 to 14 days
Procedure, shortened: (§1)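 Compounds in non-phytotoxic solvent with surfactant applied preemergence to planted seeds and postemergence to plants at 1- to 4-leaf stage (2–18 cm). Kept in greenhouse 12–14 days, then visually rated against controls on a 0 (no effect) to 100 (complete control) scale.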

Nightshade = experiment: Test C preemergence
[2] = system: lambsquarters (Chenopodium album); experiment: Test C preemergence; settings: for Plant response rating (0 to 100), Lambsquarters: Rate 500 g/ha, visual evaluation after 12 to 14 days
Procedure, shortened: as §1

[3] = system: velvetleaf (Abutilon theophrasti); experiment: Test C preemergence; settings: for Plant response rating (0 to 100), Velvetleaf: Rate 500 g/ha, visual evaluation after 12 to 14 days
Procedure, shortened: as §1

[4] = system: giant foxtail (Setaria faberii); experiment: Test C preemergence; settings: for Plant response rating (0 to 100), Foxtail, Giant: Rate 500 g/ha, visual evaluation after 12 to 14 days
Procedure, shortened: as §1

[5] = system: pigweed (Amaranthus retroflexus); experiment: Test C preemergence; settings: for Plant response rating (0 to 100), Pigweed: Rate 500 g/ha, visual evaluation after 12 to 14 days
Procedure, shortened: as §1

[6] = system: yellow nutsedge (Cyperus esculentus); experiment: Test C preemergence; settings: for Plant response rating (0 to 100), Nutsedge: Rate 500 g/ha, visual evaluation after 12 to 14 days
Procedure, shortened: as §1

[7] = system: crabgrass (Digitaria sanguinalis); experiment: Test C preemergence; settings: for Plant response rating (0 to 100), Crabgrass: Rate 500 g/ha, visual evaluation after 12 to 14 days
Procedure, shortened: as §1

soybean (Glycine max) = experiment: Test C preemergence; settings: for Plant response rating (0 to 100), Soybean: Rate 500 g/ha, visual evaluation after 12 to 14 days
Procedure, shortened: as §1

[8] = system: cocklebur (Xanthium strumarium); experiment: Test C preemergence; settings: for Plant response rating (0 to 100), Cocklebur: Rate 500 g/ha, visual evaluation after 12 to 14 days
Procedure, shortened: as §1

[9] = system: goosegrass (Eleusine indica); experiment: Test C preemergence; settings: for Plant response rating (0 to 100), Goosegrass: Rate 500 g/ha, visual evaluation after 12 to 14 days
Procedure, shortened: as §1

[10] = system: common ragweed (Ambrosia elatior); experiment: Test C preemergence; settings: for Plant response rating (0 to 100), Ragweed, Common: Rate 500 g/ha, visual evaluation after 12 to 14 days
Procedure, shortened: as §1

Sunflower [11] = experiment: Test C preemergence; settings: Rate 125 g/ha; scale 0 to 100, 0 no effect, 100 complete control
[12] = system: bermudagrass (Cynodon dactylon); experiment: Test C preemergence; settings: for Plant response rating (0 to 100 where 0 is no effect and 100 is complete control), Bermudagrass: Rate 500 g/ha, visual evaluation after 12 to 14 days
Procedure, shortened: as §1

[13] = system: johnsongrass (Sorghum halepense); experiment: Test C preemergence; settings: for Plant response rating (0 to 100), Johnsongrass: Rate 500 g/ha, visual evaluation after 12 to 14 days
Procedure, shortened: as §1

Sunflower [14] = experiment: Test C preemergence; settings: Rate 62 g/ha, scale 0 to 100
[15] = system: wheat (Triticum aestivum); experiment: Test B postemergence
Procedure, shortened: (§2)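 Pre: seeded pots sprayed, chemical in non-phytotoxic solvent/surfactant mix. Post: plants 2–18 cm, 1–4 leaf, same formulation. Greenhouse 13–15 d; visual % control vs untreated, 0–100 scale.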

[16] = system: velvetleaf (Abutilon theophrasti); experiment: Test B postemergence
Procedure, shortened: as §2

[17] = system: giant foxtail (Setaria faberii); experiment: Test B postemergence
Procedure, shortened: as §2

corn (Zea mays) = experiment: Test B postemergence
Procedure, shortened: as §2

[18] = Rate 125 g/ha, scale 0 to 100, 0 no effect, 100 complete control
[19] = preemergence, Rate 62 g/ha, scale 0 to 100
[20] = preemergence, Rate 250 g/ha, scale 0 to 100, 0 no effect, 100 complete control
[21] = Rate 250 g/ha, scale 0 to 100, 0 no effect, 100 complete control
[22] = Rate 500 g/ha, scale 0 (no effect) to 100 (complete control), 13 to 15 days

CCC(CC)c1ccn(C2CCN(c3ccc(F)c(C(F)(F)F)c3)C2=O)n1 (stereo not shown) [Compound 144]
Plant response rating, Cupgrass, Woolly [1, 18]: 100 | Plant response rating, Cupgrass, Woolly [1, 19]: 100 | Plant response rating (0 to 100), Cupgrass, Woolly ([1]; preemergence): 100 | Plant response rating, Cupgrass, Woolly [1, 20]: 100 | Plant response rating, Nightshade (Nightshade; Rate 62 g/ha, scale 0 to 100): 100 | Plant response rating, Nightshade (Nightshade; [18]): 100 | Plant response rating, Nightshade (Nightshade; [21]): 100 | Plant response rating, Lambsquarters [2, 18]: 100 | Plant response rating, Lambsquarters [2, 19]: 100 | Plant response rating (0 to 100), Lambsquarters ([2]; preemergence): 100 | Plant response rating, Lambsquarters [2, 20]: 100 | Plant response rating, Velvetleaf [3, 18]: 0 | Plant response rating, Velvetleaf [3, 19]: 0 | Plant response rating (0 to 100), Velvetleaf ([3]; preemergence): 20 | Plant response rating, Velvetleaf [3, 20]: 20 | Plant response rating, Foxtail, Giant [4, 18]: 100 | Plant response rating, Foxtail, Giant [4, 19]: 100 | Plant response rating (0 to 100), Foxtail, Giant ([4]; preemergence): 100 | Plant response rating, Foxtail, Giant [4, 20]: 100 | Plant response rating, Pigweed [5, 18]: 100 | Plant response rating, Pigweed [5, 19]: 100 | Plant response rating (0 to 100), Pigweed ([5]; preemergence): 100 | Plant response rating, Pigweed [5, 20]: 100 | Plant response rating, Nutsedge [6, 18]: 0 | Plant response rating, Nutsedge [6, 19]: 0 | Plant response rating (0 to 100), Nutsedge ([6]; preemergence): 0 | Plant response rating, Nutsedge [6, 20]: 0 | Plant response rating, Crabgrass [7, 18]: 100 | Plant response rating, Crabgrass [7, 19]: 100 | Plant response rating (0 to 100), Crabgrass ([7]; preemergence): 100 | Plant response rating, Crabgrass [7, 20]: 100 | Plant response rating, Soybean (soybean (Glycine max); [18]): 50 | Plant response rating, Soybean (soybean (Glycine max); [19]): 50 | Plant response rating (0 to 100), Soybean (soybean (Glycine max); preemergence): 70 | Plant response rating, Soybean (soybean (Glycine max); [20]): 70 | Plant response rating, Cocklebur [8, 18]: 60 | Plant response rating, Cocklebur [8, 19]: 50 | Plant response rating (0 to 100), Cocklebur ([8]; preemergence): 60 | Plant response rating, Cocklebur [8, 20]: 60 | Plant response rating, Goosegrass [9, 18]: 100 | Plant response rating, Goosegrass [9, 19]: 100 | Plant response rating (0 to 100), Goosegrass ([9]; preemergence): 100 | Plant response rating, Goosegrass [9, 20]: 100 | Plant response rating, Ragweed, Common [10, 18]: 0 | Plant response rating, Ragweed, Common [10, 19]: 0 | Plant response rating (0 to 100), Ragweed, Common ([10]; preemergence): 50 | Plant response rating, Ragweed, Common [10, 20]: 30 | Plant response rating, Sunflower (Sunflower [11]): 40 | Plant response rating, Bermudagrass [12, 18]: 100 | Plant response rating, Bermudagrass [12, 19]: 100 | Plant response rating (0 to 100 where 0 is no effect and 100 is complete control), Bermudagrass ([12]; preemergence): 100 | Plant response rating, Bermudagrass [12, 20]: 100 | Plant response rating, Johnsongrass [13, 18]: 90 | Plant response rating, Johnsongrass [13, 19]: 0 | Plant response rating (0 to 100), Johnsongrass ([13]; preemergence): 100 | Plant response rating, Johnsongrass [13, 20]: 100 | Plant response rating, Sunflower (Sunflower [14]): 40 | Plant response rating, Wheat [15, 18]: 0 | Plant response rating, Wheat [15, 22]: 0 | Plant response rating, Velvetleaf [16, 18]: 0 | Plant response rating, Velvetleaf [16, 22]: 0 | Plant response rating, Foxtail, Giant [17, 18]: 20 | Plant response rating, Foxtail, Giant [17, 22]: 40 | Plant response rating, Corn (corn (Zea mays); [18]): 0 | Plant response rating, Corn (corn (Zea mays); [22]): 0

CCC(C)c1ccn(C2CCN(c3ccc(F)c(C(F)(F)F)c3)C2=O)n1 (stereo not shown) [Compound 145]
Plant response rating, Cupgrass, Woolly [1, 18]: 100 | Plant response rating, Cupgrass, Woolly [1, 19]: 20 | Plant response rating (0 to 100), Cupgrass, Woolly ([1]; preemergence): 100 | Plant response rating, Cupgrass, Woolly [1, 20]: 100 | Plant response rating, Nightshade (Nightshade; Rate 62 g/ha, scale 0 to 100): 0 | Plant response rating, Nightshade (Nightshade; [18]): 10 | Plant response rating, Nightshade (Nightshade; [21]): 20 | Plant response rating, Lambsquarters [2, 18]: 100 | Plant response rating, Lambsquarters [2, 19]: 100 | Plant response rating (0 to 100), Lambsquarters ([2]; preemergence): 100 | Plant response rating, Lambsquarters [2, 20]: 100 | Plant response rating, Velvetleaf [3, 18]: 0 | Plant response rating, Velvetleaf [3, 19]: 0 | Plant response rating (0 to 100), Velvetleaf ([3]; preemergence): 20 | Plant response rating, Velvetleaf [3, 20]: 0 | Plant response rating, Foxtail, Giant [4, 18]: 100 | Plant response rating, Foxtail, Giant [4, 19]: 100 | Plant response rating (0 to 100), Foxtail, Giant ([4]; preemergence): 100 | Plant response rating, Foxtail, Giant [4, 20]: 100 | Plant response rating, Pigweed [5, 18]: 100 | Plant response rating, Pigweed [5, 19]: 100 | Plant response rating (0 to 100), Pigweed ([5]; preemergence): 100 | Plant response rating, Pigweed [5, 20]: 100 | Plant response rating, Nutsedge [6, 18]: 0 | Plant response rating, Nutsedge [6, 19]: 0 | Plant response rating (0 to 100), Nutsedge ([6]; preemergence): 0 | Plant response rating, Nutsedge [6, 20]: 0 | Plant response rating, Crabgrass [7, 18]: 100 | Plant response rating, Crabgrass [7, 19]: 100 | Plant response rating (0 to 100), Crabgrass ([7]; preemergence): 100 | Plant response rating, Crabgrass [7, 20]: 100 | Plant response rating, Soybean (soybean (Glycine max); [18]): 30 | Plant response rating, Soybean (soybean (Glycine max); [19]): 20 | Plant response rating (0 to 100), Soybean (soybean (Glycine max); preemergence): 60 | Plant response rating, Soybean (soybean (Glycine max); [20]): 30 | Plant response rating, Cocklebur [8, 18]: 20 | Plant response rating, Cocklebur [8, 19]: 0 | Plant response rating (0 to 100), Cocklebur ([8]; preemergence): 60 | Plant response rating, Cocklebur [8, 20]: 50 | Plant response rating, Goosegrass [9, 18]: 100 | Plant response rating, Goosegrass [9, 19]: 90 | Plant response rating (0 to 100), Goosegrass ([9]; preemergence): 100 | Plant response rating, Goosegrass [9, 20]: 100 | Plant response rating, Ragweed, Common [10, 18]: 0 | Plant response rating, Ragweed, Common [10, 19]: 0 | Plant response rating (0 to 100), Ragweed, Common ([10]; preemergence): 20 | Plant response rating, Ragweed, Common [10, 20]: 0 | Plant response rating, Sunflower (Sunflower [11]): 0 | Plant response rating, Bermudagrass [12, 18]: 100 | Plant response rating, Bermudagrass [12, 19]: 60 | Plant response rating (0 to 100 where 0 is no effect and 100 is complete control), Bermudagrass ([12]; preemergence): 100 | Plant response rating, Bermudagrass [12, 20]: 100 | Plant response rating, Johnsongrass [13, 18]: 10 | Plant response rating, Johnsongrass [13, 19]: 0 | Plant response rating (0 to 100), Johnsongrass ([13]; preemergence): 90 | Plant response rating, Johnsongrass [13, 20]: 20 | Plant response rating, Sunflower (Sunflower [14]): 0 | Plant response rating, Wheat [15, 18]: 0 | Plant response rating, Wheat [15, 22]: 0 | Plant response rating, Velvetleaf [16, 18]: 0 | Plant response rating, Velvetleaf [16, 22]: 30 | Plant response rating, Foxtail, Giant [17, 18]: 0 | Plant response rating, Foxtail, Giant [17, 22]: 40 | Plant response rating, Corn (corn (Zea mays); [18]): 0 | Plant response rating, Corn (corn (Zea mays); [22]): 0
